Measurements: ChEMBL document CHEMBL5729244, “Heterocycle compounds as Tyro3, Axl and MerTK (TAM) family of receptor tyrosine kinase inhibitors” (2022)

Tests used:
[1] = biological target: T1, Tyrosine-protein kinase Mer (Homo sapiens, UniProt Q12866)
T1 sequence (Q12866 whole entry): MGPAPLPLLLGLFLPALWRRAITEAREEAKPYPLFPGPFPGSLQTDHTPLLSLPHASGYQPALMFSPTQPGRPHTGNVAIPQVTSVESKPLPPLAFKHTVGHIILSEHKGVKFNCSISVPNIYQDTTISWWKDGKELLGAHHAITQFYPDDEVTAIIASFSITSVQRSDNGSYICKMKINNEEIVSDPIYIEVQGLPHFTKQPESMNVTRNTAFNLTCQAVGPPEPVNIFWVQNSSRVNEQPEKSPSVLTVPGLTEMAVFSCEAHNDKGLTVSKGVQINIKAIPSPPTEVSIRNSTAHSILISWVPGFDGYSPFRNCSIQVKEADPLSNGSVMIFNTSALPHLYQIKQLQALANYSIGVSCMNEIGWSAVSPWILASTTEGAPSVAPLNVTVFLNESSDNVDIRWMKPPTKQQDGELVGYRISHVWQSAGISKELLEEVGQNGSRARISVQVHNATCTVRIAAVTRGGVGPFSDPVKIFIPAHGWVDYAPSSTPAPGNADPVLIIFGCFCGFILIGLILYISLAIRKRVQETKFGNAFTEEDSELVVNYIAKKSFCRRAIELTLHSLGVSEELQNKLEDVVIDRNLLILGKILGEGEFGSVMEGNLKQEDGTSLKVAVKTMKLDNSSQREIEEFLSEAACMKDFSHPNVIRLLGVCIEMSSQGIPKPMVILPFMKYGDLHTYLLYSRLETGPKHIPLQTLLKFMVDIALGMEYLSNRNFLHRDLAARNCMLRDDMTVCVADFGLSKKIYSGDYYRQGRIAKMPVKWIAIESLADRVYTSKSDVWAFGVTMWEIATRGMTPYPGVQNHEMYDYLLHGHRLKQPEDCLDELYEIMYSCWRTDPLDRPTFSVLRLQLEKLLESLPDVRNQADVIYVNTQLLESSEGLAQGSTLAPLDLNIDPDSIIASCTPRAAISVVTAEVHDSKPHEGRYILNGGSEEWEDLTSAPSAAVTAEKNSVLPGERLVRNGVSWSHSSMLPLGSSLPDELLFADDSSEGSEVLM

[2] = biological target: T2, Tyrosine-protein kinase receptor UFO (Homo sapiens, UniProt P30530)
T2 sequence (P30530 whole entry): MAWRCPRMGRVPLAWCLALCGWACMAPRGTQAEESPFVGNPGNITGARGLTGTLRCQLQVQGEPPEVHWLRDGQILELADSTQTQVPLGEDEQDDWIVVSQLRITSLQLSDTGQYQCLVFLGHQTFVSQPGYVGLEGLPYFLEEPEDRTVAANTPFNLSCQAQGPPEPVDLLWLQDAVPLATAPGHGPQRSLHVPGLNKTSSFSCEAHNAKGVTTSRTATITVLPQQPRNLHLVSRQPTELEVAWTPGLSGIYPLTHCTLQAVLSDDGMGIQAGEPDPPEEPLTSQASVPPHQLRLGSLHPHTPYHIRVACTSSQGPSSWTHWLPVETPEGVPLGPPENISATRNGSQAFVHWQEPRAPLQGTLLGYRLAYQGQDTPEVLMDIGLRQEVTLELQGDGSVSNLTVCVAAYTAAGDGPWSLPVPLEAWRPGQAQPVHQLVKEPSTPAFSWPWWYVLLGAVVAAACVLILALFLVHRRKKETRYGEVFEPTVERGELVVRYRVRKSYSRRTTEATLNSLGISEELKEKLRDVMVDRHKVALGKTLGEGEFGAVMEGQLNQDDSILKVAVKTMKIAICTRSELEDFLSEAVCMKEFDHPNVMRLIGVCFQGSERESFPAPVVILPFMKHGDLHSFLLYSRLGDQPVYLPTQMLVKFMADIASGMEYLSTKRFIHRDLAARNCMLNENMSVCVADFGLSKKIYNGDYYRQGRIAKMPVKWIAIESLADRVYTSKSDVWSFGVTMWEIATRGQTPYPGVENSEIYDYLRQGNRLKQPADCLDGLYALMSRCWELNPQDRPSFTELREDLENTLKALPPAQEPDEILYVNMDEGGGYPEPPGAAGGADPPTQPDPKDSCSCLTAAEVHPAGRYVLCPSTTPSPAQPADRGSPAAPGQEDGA

## COCCOc1nc(Nc2ccc(CN3CCN(C)CC3)cc2)nc2[nH]cc(-c3ccc4c(n3)CN(C)S4(=O)=O)c12
[1]
  IC50: > 1000 nM
[2]
  IC50: < 30 nM

## COc1nc(Nc2ccc(CN3CCC(C)CC3)cc2)nc2[nH]cc(-c3ccc(F)cc3F)c12
[2]
  IC50: < 30 nM
